Assay results reported in ChEMBL document CHEMBL2010711, “Synthesis and comparative evaluation of 4-oxa- and 4-aza-podophyllotoxins as antiproliferative microtubule destabilizing agents” (Bioorg Med Chem Lett, 2012).
Activity calls are given as the source filed them.

How the values were obtained:
Paracentrotus lividus [1] = assay: Antimitotic activity against Paracentrotus lividus embryo assessed as cleavage alteration at 2 fold less effective threshold concentration after 2.5 to 6 hrs; format: functional, organism-based
Paracentrotus lividus [2] = assay: Microtubule destabilizing activity in Paracentrotus lividus embryo assessed as concentration required to cause 100% embryo spinning after 15 mins to 20 hrs; format: functional
Paracentrotus lividus [3] = assay: Antimitotic activity against Paracentrotus lividus embryo assessed as concentration required to cause 100% cleavage arrest after 2.5 to 6 hrs; format: functional
Paracentrotus lividus [4] = assay: Microtubule destabilizing activity in Paracentrotus lividus embryo assessed as embryo spinning at 2 fold less effective threshold concentration after 15 mins to 20 hrs; format: functional, organism-based
Paracentrotus lividus [5] = assay: Antimitotic activity against Paracentrotus lividus embryo assessed as concentration required to cause 100% cleavage alteration after 2.5 to 6 hrs; format: functional
Paracentrotus lividus [6] = assay: Antimitotic activity against Paracentrotus lividus embryo assessed as cleavage arrest at 2 fold less effective threshold concentration after 2.5 to 6 hrs; format: functional, organism-based

Compound: COc1ccc2c(c1)NC1=C(C(=O)OC1)C2c1cc(OC)c2c(c1)OCCO2 (stereo unspecified)
- Activity (Paracentrotus lividus [1]): inactive
- EC (Paracentrotus lividus [2]): 1000 nM
- EC (Paracentrotus lividus [3]): 50 nM
- Activity (Paracentrotus lividus [4]): inactive
- EC (Paracentrotus lividus [5]): 10 nM
- Activity (Paracentrotus lividus [6]): inactive
